{"source": "paper PMC7269481", "about": "“ZN148 Is a Modular Synthetic Metallo-β-Lactamase Inhibitor That Reverses Carbapenem Resistance in Gram-Negative Pathogens In Vivo” (Antimicrobial Agents and Chemotherapy, 2020)", "key": {"[1]": {"test_system": "NDM-1-producing K. pneumoniae K66-45", "test": "Serial passage on increasing meropenem", "format": "cell-based", "conditions": "for fold increase in meropenem MIC after serial passaging: compared to control culture / original MIC", "protocol": "K. pneumoniae K66-45 was passaged in a 96-well microtiter plate with a consistent concentration of ZN148 and increasing concentrations of meropenem. To start the passaging, cation-adjusted Mueller-Hinton broth II medium (Sigma-Aldrich) containing 0.0625 mg/liter (0.5× MIC) and 50 or 100 μM ZN148 was inoculated with 1% of overnight culture, which was grown without selection. Six biological replicates were passaged in parallel, and from each of the six overnight cultures four wells were inoculated, resulting in 24 subcultures for each ZN148 concentration. After 24 h of incubation at 37°C and shaking at 180 rpm, the wells were visually checked for growth."}, "female BALB/c mice": {"test_system": "female BALB/c mice", "test": "In vivo tolerance (maximum tolerated dose study)", "conditions": "weekly i.p. doses 4 to 128 mg/kg", "protocol": "In vivo tolerance of ZN148 was performed by Antineo (Lyon, France). Female BALB/c mice (4 weeks old, approximately 20 g; Charles River, L’Arbresle, France) were acclimatized 4 days in the animal facility before the initiation of experiments. Groups of six mice were either untreated or treated with 200 μl of ZN148 (0.4 to 12.8 g/liter) i.p. once a week. Doses were doubled each week (4 to 128 mg/kg) in the absence of any observed weight loss or modification in behavior. Individual weights were monitored 4 days a week. The relative weights were calculated as ratios between the weight of the day and the weight at the initiation of the experiment. Animals were also followed for macroscopic modifications in behavior. The protocol for experiments in mice was approved by the University of Lyon Animal Ethics Committee (Comité d’Ethique en Expérimentation Animale de l’Université Claude Bernard [Lyon, France], authorization number DR2015-09)."}, "[2]": {"test_system": "MBL-producing P. aeruginosa clinical strains", "test": "Carbapenem MIC, MBL-producing P. aeruginosa", "format": "cell-based", "conditions": "50 μM ZN148; n = 52", "protocol": "(§1) MICs of carbapenems alone and in combination with inhibitors were determined by broth microdilution according to the Clinical and Laboratory Standards Institute (CLSI) guidelines ([48]) using either premade plates (TREK Diagnostic Systems/Thermo Fisher Scientific, East Grinstead, United Kingdom) with meropenem or in-house-prepared plates with meropenem, imipenem, and doripenem. ZN148 and other inhibitors were tested at a fixed concentration of 50 μM. Cation-adjusted Mueller-Hinton medium (TREK Diagnostic Systems/Thermo Fisher Scientific; Becton Dickinson, Franklin Lakes, NJ) were used as growth medium. The plates were incubated for 20 h at 37°C. ZN148, ZN222, ZN223, ZN228, and TPA were initially tested in combination with meropenem using two indicator strains: NDM-1-producing K. pneumoniae ([49], [50]) and VIM-2-producing P. aeruginosa ([51]). The activity of ZN148 were subsequently tested against two extended strain collections: (i) in combination with meropenem against MBL-producing Enterobacterales (n = 62), MBL-producing P. aeruginosa (n = 9) and MBL- and class D carbapenemase-coproducing Enterobacterales (n = 5) from the strain collection at the Norwegian National Advisory Unit on Detection of Antimicrobial Resistance and (ii) in combination with meropenem, imipenem, and doripenem against globally collected MBL-producing E. coli (n = 87), K. pneumoniae (n = 85), P. aeruginosa (n = 52), and A. baumannii (n = 6), MBL- and class A/D carbapenemase-coproducing E. coli (n = 11), K. pneumoniae (n = 15) and A. baumannii (n = 7) at IHMA Europe, Sàrl, Switzerland. E. coli ATCC 25922 and P. aeruginosa ATCC 27853 were used as quality control strains. The MBL inhibitors were also tested for intrinsic antibacterial activity against the strains."}, "[3]": {"test": "Solubility measurement in PBS", "format": "physicochemical", "protocol": "The solubility of ZN148 was evaluated in PBS buffer at pH 7.4. Increasing amounts of ZN148 was dissolved in 1.0 ml at room temperature by gentle swirling of the solution in a glass vial. A total of 1.225 g of ZN148 was successfully dissolved in 1.0 ml of PBS buffer, giving a total volume of 1.8 ml. This solution was stable at 4°C for more than 6 weeks without precipitation."}, "[4]": {"target": "T1, recombinant human glyoxylase II (Homo sapiens, UniProt Q16775)", "T1 construct": "purchased R&D Systems", "test": "Interaction with human glyoxylase II", "format": "biochemical", "conditions": "500 μM", "protocol": "Recombinant human glyoxylase II (rHGly II; R&D Systems) was incubated with or without ZN148 (final concentrations of 125, 250, and 500 μM) for 10 and 30 min at 25°C in 50 mM Tris buffer (Merck) supplemented with 250 mM NaCl (pH 7.5). Then, 50 μl of substrate mixture containing 2 mM S-lactoylglutathione and 400 μM 5,5′-dithiobis(2-nitrobenzoic acid) (Sigma-Aldrich) was mixed with 50 μl of the preincubated rHGly II at a final enzyme concentration of 0.2 ng/μl. The initial enzymatic velocity was measured at 405 nm in 96-well plates (Thermo Fisher Scientific, Roskilde, Denmark) at 25°C in a SpectraMax Plus plate reader (Molecular Devices). EDTA (Merck) was included as a control."}, "E. coli with NDM (n=102)": {"test_system": "E. coli with NDM (n=102)", "test": "Meropenem MIC distribution, E. coli with NDM", "format": "cell-based", "conditions": "MEM alone or +50 µM ZN148", "protocol": "as §1"}, "[5]": {"test_system": "Other Enterobacterales with MBLs (n=10)", "test": "Meropenem MIC distribution, other Enterobacterales with MBLs", "format": "cell-based", "conditions": "MEM alone or +50 µM ZN148", "protocol": "as §1"}, "[6]": {"test_system": "class A carbapenemase (KPC)-producing E. coli", "test": "Carbapenem MIC, class A carbapenemase-producing E. coli", "format": "cell-based", "conditions": "carbapenem alone or with 50µM ZN148", "protocol": "as §1"}, "[7]": {"test_system": "K. pneumoniae with VIM (n=17)", "test": "Meropenem MIC distribution, K. pneumoniae with VIM", "format": "cell-based", "conditions": "MEM alone or +50 µM ZN148", "protocol": "as §1"}}, "note": "“Also recorded” adds a separate entry of the source. Like-named read-outs stand apart in the source and are kept apart here.", "data": [{"molecule": "CN(C[C@H](O)[C@@H](O)[C@H](O)[C@H](O)CO)C(=O)c1ccc(CN(Cc2ccccn2)Cc2ccccn2)nc1", "note": "[ZN148]", "values": [{"measurement": "maximum meropenem MIC reached by evolved cultures", "setting": "[1]; 50 µM ZN148, 8 passages", "result": 8, "unit": "µg/mL"}, {"measurement": "maximum meropenem MIC reached by evolved cultures", "setting": "[1]; 100 µM ZN148, 6 passages", "result": 2, "unit": "µg/mL"}, {"measurement": "fold increase in meropenem MIC after serial passaging", "setting": "[1]; in the presence of 50 μM ZN148", "result": 64, "unit": "fold"}, {"measurement": "fold increase in meropenem MIC after serial passaging", "setting": "[1]; in the presence of 100 μM ZN148", "result": 16, "unit": "fold"}, {"measurement": "clinical signs (hair loss or bristly hair, immobility, prostration) test vs control groups", "setting": "female BALB/c mice", "result": "no significant differences"}, {"measurement": "loss of weight compared to initial weight", "setting": "female BALB/c mice", "result": "< 10", "unit": "%"}, {"measurement": "strains with restored clinical susceptibility, in combination with doripenem", "setting": "[2]", "result": 15, "unit": "%"}, {"measurement": "strains with restored clinical susceptibility, in combination with imipenem", "setting": "[2]", "result": 25, "unit": "%"}, {"measurement": "strains with restored clinical susceptibility, in combination with meropenem", "setting": "[2]", "result": 17, "unit": "%"}, {"measurement": "solubility", "setting": "[3]; PBS buffer, pH 7.4, aqueous buffer, thermodynamic from solid, in phosphate-buffered saline [PBS]", "result": 1220, "unit": "mg/mL"}, {"measurement": "stability of the solution without precipitation", "setting": "[3]; at 4°C, 1.225 g in 1.0 ml PBS", "result": "more than 6 weeks"}, {"measurement": "amount dissolved in 1.0 ml of PBS buffer", "setting": "[3]; pH 7.4, room temperature, total volume 1.8 ml", "result": 1.225, "unit": "g"}, {"measurement": "inhibitory activity against recombinant human glyoxylase II", "setting": "[4]", "result": "no inhibition; also recorded: no inhibitory activity"}]}, {"molecule": "C[C@@H](O)[C@H]1C(=O)N2C(C(=O)O)=C(S[C@@H]3CN[C@H](C(=O)N(C)C)C3)[C@H](C)[C@H]12", "note": "[meropenem]", "values": [{"measurement": "No. of strains with indicated MIC", "setting": "E. coli with NDM (n=102); MIC 1 mg/L", "result": 2}, {"measurement": "No. of strains with indicated MIC", "setting": "E. coli with NDM (n=102); MIC 4 mg/L", "result": 6}, {"measurement": "No. of strains with indicated MIC", "setting": "E. coli with NDM (n=102); MIC 8 mg/L", "result": 2}, {"measurement": "No. of strains with indicated MIC", "setting": "E. coli with NDM (n=102); MIC 16 mg/L", "result": 8}, {"measurement": "No. of strains with indicated MIC", "setting": "E. coli with NDM (n=102); MIC 32 mg/L", "result": 19}, {"measurement": "No. of strains with indicated MIC", "setting": "E. coli with NDM (n=102); MIC ≥64 mg/L", "result": 65}, {"measurement": "No. of strains with indicated MIC", "setting": "[5]; MIC 4 mg/L", "result": 1}, {"measurement": "No. of strains with indicated MIC", "setting": "[5]; MIC 8 mg/L", "result": 2}, {"measurement": "No. of strains with indicated MIC", "setting": "[5]; MIC 16 mg/L", "result": 3}, {"measurement": "No. of strains with indicated MIC", "setting": "[5]; MIC 32 mg/L", "result": 2}, {"measurement": "No. of strains with indicated MIC", "setting": "[5]; MIC ≥64 mg/L", "result": 2}, {"measurement": "MIC", "setting": "[6]; Escherichia coli, KPC-2 strains, one value per strain, read-out: MIC", "result": 8, "unit": "µg/mL"}, {"measurement": "MIC", "setting": "[6]; Escherichia coli, KPC-3 strain, read-out: MIC", "result": 2, "unit": "µg/mL"}, {"measurement": "MIC", "setting": "[6]; KPC-2 strains, one value per strain, listed as MEM", "result": 4, "unit": "µg/mL"}, {"measurement": "No. of strains with indicated MIC", "setting": "[7]; MIC 2 mg/L", "result": 2}, {"measurement": "No. of strains with indicated MIC", "setting": "[7]; MIC 4 mg/L", "result": 2}, {"measurement": "No. of strains with indicated MIC", "setting": "[7]; MIC 8 mg/L", "result": 1}, {"measurement": "No. of strains with indicated MIC", "setting": "[7]; MIC 16 mg/L", "result": 4}, {"measurement": "No. of strains with indicated MIC", "setting": "[7]; MIC 32 mg/L", "result": 3}, {"measurement": "No. of strains with indicated MIC", "setting": "[7]; MIC ≥64 mg/L", "result": 5}]}]}
